US10729693B2, “Compositions and methods for the treatment of endometriosis” (PONCE MEDICAL SCHOOL FOUNDATION, INC., priority 2018, dated 2020)

Test: Body weight monitoring of rats with endometriosis
Format: in vivo, rat
Settings: vs vehicle
Description: Female Sprague Dawley rats of 60 days old were used in the experiments (weighing between 190-220 grams). Rats were purchased from Ponce Research Institute Animal Facilities and littermates were never assigned to the same experimental group. Rats were housed two per cage and kept in a 12-hour light/dark cycle with food and water ad libitum. All experimental procedures were approved by the Ponce Health Sciences University (protocol #202) and the University of Texas at Rio Grande Valley (protocol #2016-004) Institutional Animal Care and Use Committees and adhere to the NIH Guide for the Care and Use of Laboratory Animals. Rats were weighed twice per week to monitor their adequate development and once a day during the drug administration period; also, estrous cycles were monitored before and after treatment to assess possible effects of the drug on reproductive cyclicity.
Inconsistencies in the effect of antalarmin on […] rodent body weight can happen. The Group 2 rat weight changes were monitored during the drug administration period and every week afterwards during the development of endometriosis.

## CCCCN(CC)c1nc(C)nc2c1c(C)c(C)n2-c1c(C)cc(C)cc1C [antalarmin]
By week 7 and 8 after endometriosis induction
  weight gain in subsequent weeks: significantly lower weight gain
Day 7 and 2 days after treatment stopped
  body weight during and just after drug administration: weighed significantly less
